Data: the supplement of paper PMC10307832

Tests used:
Test in all cases: relative viability (nuclei count vs DMSO), 5 days (fraction); higher = more cells survive
Sorafenib = compound: CNC(=O)c1cc(Oc2ccc(NC(=O)Nc3ccc(Cl)c(C(F)(F)F)c3)cc2)ccn1 [Sorafenib]
Procedure, shortened: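 Viability was defined as treated-well nuclei divided by vehicle-well nuclei, with the median taken over replicate plates. Cells from lung cancer lines sat overnight at 37 °C in 1536-well plates, received five √10-spaced library-drug doses by pinning on vehicle-anchored plates, and grew 5 days without medium change before one-step fixation, permeabilisation and Hoechst staining, 4× imaging and MetaXpress nuclear counts. Only plates with control CV under 25% and at least one doubling were kept.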

Sorafenib + Palbociclib = compound: CNC(=O)c1cc(Oc2ccc(NC(=O)Nc3ccc(Cl)c(C(F)(F)F)c3)cc2)ccn1 [Sorafenib] + CC(=O)c1c(C)c2cnc(Nc3ccc(N4CCNCC4)cn3)nc2n(C2CCCC2)c1=O [Palbociclib] (partner 0.5 µM)
Procedure, shortened: (§1)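 Lung cancer cell lines in 1536-well plates were dosed by pin tool the day after seeding, either with one drug alone or with a fixed anchor-drug dose plus five library-drug doses (not always all listed) in √10 steps. After 5 days, cells were fixed and their nuclei stained in one step (final 0.05% Triton X-100, 1% formaldehyde, 1 ug/ml Hoechst), then counted on 4× images. Relative viability is the nuclei count in treated wells divided by that in vehicle wells. Values are medians of duplicate plates.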

Sorafenib + Foretinib = compound: CNC(=O)c1cc(Oc2ccc(NC(=O)Nc3ccc(Cl)c(C(F)(F)F)c3)cc2)ccn1 [Sorafenib] + COc1cc2c(Oc3ccc(NC(=O)C4(C(=O)Nc5ccc(F)cc5)CC4)cc3F)ccnc2cc1OCCCN1CCOCC1 [Foretinib] (partner 0.25 µM)
Procedure, shortened: as §1

Sorafenib + Lapatinib = compound: CNC(=O)c1cc(Oc2ccc(NC(=O)Nc3ccc(Cl)c(C(F)(F)F)c3)cc2)ccn1 [Sorafenib] + CS(=O)(=O)CCNCc1ccc(-c2ccc3ncnc(Nc4ccc(OCc5cccc(F)c5)c(Cl)c4)c3c2)o1 [Lapatinib] (partner 2 µM)
Procedure, shortened: as §1

Sorafenib + Olaparib = compound: CNC(=O)c1cc(Oc2ccc(NC(=O)Nc3ccc(Cl)c(C(F)(F)F)c3)cc2)ccn1 [Sorafenib] + O=C(c1cc(Cc2n[nH]c(=O)c3ccccc23)ccc1F)N1CCN(C(=O)C2CC2)CC1 [Olaparib] (partner 8 µM)
Procedure, shortened: as §1

Cell Line	relative viability (Sorafenib; 0.08 µM)	relative viability (Sorafenib; 0.253 µM)	relative viability (Sorafenib; 2.53 µM)	relative viability (Sorafenib; 8 µM)	relative viability (Sorafenib + Palbociclib; first compound 0.08 µM)	relative viability (Sorafenib + Palbociclib; first compound 0.253 µM)	relative viability (Sorafenib + Palbociclib; first compound 2.53 µM)	relative viability (Sorafenib + Palbociclib; first compound 8 µM)	relative viability (Sorafenib + Foretinib; first compound 0.08 µM)	relative viability (Sorafenib + Foretinib; first compound 0.253 µM)	relative viability (Sorafenib + Foretinib; first compound 2.53 µM)	relative viability (Sorafenib + Foretinib; first compound 8 µM)	relative viability (Sorafenib + Lapatinib; first compound 0.253 µM)	relative viability (Sorafenib + Lapatinib; first compound 2.53 µM)	relative viability (Sorafenib + Lapatinib; first compound 8 µM)	relative viability (Sorafenib + Olaparib; first compound 0.08 µM)	relative viability (Sorafenib + Olaparib; first compound 0.253 µM)	relative viability (Sorafenib + Olaparib; first compound 2.53 µM)	relative viability (Sorafenib + Olaparib; first compound 8 µM)	relative viability (Sorafenib + Lapatinib; first compound 0.08 µM)
NCI-H2085	1.06	0.972	1.04	0.895	0.442	0.491	0.51	0.497	0.948	0.856	0.864	0.874	0.761	0.858	0.717	0.763	0.851	1.01	0.761	–
PC-3 [JPC-3]	1.15	0.973	1.09	–	0.522	0.552	0.576	0.606	1.07	1.05	0.985	0.882	0.439	0.502	0.537	1.18	1.12	1.18	0.944	0.499
HCC-78	1.13	0.953	1.05	1.05	0.468	0.471	0.529	0.476	0.632	0.537	0.801	0.905	0.755	0.815	0.86	0.891	0.953	0.909	0.819	1.06
NCI-H2170	1	0.875	0.943	0.782	0.379	0.327	0.401	0.325	1.02	0.994	0.986	0.967	0.294	0.349	0.39	0.63	0.577	0.556	0.365	0.279
NCI-H2126	1.02	0.997	1.07	1	0.354	0.375	0.411	0.399	1.26	1.09	1.1	1.2	0.642	0.808	0.792	0.935	0.851	0.96	0.913	0.766
NCI-H2347	1.11	0.964	1.01	0.944	0.432	0.464	0.434	0.43	1.41	0.673	0.953	0.775	0.83	0.965	0.968	0.675	0.502	0.503	0.519	0.945
RERF-LC-KJ	1.01	0.903	0.976	0.941	1.05	0.961	1.03	0.759	0.969	0.829	0.882	0.849	0.782	0.838	0.778	0.979	0.784	–	0.297	0.917
201T	0.975	0.943	1.07	0.918	0.34	0.343	0.36	0.357	1.23	–	1.11	0.884	0.991	–	1.03	0.812	0.88	0.877	0.843	1.06
